Laboratory results as given in PMC2923275 (Biochemical pharmacology, 2010).

Experiments:
[1] = test system: Toxoplasma gondii adenosine kinase; conditions: cited from earlier work; for Km: read-out: Km (binding affinity), apparent Km equal to apparent Ki
[2] = test system: wild type (RH) strain of T. gondii; experiment: Anti-toxoplasmic activity in tissue culture; type: cell-based, Toxoplasma gondii; conditions: wild type (RH) in human fibroblasts
[3] = test system: adenosine kinase deficient (TgAK^-3) strain of T. gondii; experiment: Anti-toxoplasmic activity in tissue culture; type: cell-based, Toxoplasma gondii; conditions: TgAK^-3 in human fibroblasts
[4] = target: purified T. gondii adenosine kinase (Toxoplasma gondii, UniProt Q9TVW2); experiment: Alternative substrate assay with purified recombinant enzyme; type: biochemical; conditions: 100 μM analogue, overnight at 37°C, HPLC
Chain of purified T. gondii adenosine kinase (Q9TVW2 whole entry): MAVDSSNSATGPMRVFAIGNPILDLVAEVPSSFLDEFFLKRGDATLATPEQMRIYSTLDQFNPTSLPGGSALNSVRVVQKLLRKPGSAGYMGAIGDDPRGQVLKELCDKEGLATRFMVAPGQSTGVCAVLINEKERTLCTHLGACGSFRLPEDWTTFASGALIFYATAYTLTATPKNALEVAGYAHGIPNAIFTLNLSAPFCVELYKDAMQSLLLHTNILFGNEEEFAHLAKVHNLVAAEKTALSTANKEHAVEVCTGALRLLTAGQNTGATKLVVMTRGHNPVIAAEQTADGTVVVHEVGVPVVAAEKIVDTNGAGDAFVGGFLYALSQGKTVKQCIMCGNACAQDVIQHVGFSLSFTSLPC

[5] = test system: uninfected human foreskin fibroblasts; experiment: Host toxicity, MTT assay on uninfected host cells; conditions: infection: None
[6] = test system: Toxoplasma gondii adenosine kinase; experiment: Binding affinity; conditions: relative to 6-(p-methylbenzylthio)inosine; ref 24 and Table 2

Compound	increase of relative binding affinity by inclusion of the 7-deaza motif ([1]; relative to 6-(p-methylbenzylthio)inosine) [fold]	percent survival of parasite ([2]; 5 μM compound) [%]	percent survival of parasite ([2]; 10 μM compound) [%]	percent survival of parasite ([2]; 25 μM compound) [%]	percent survival of parasite ([2]; 50 μM compound) [%]	percent survival of parasite ([3]; 5 μM compound) [%]	percent survival of parasite ([3]; 10 μM compound) [%]	percent survival of parasite ([3]; 25 μM compound) [%]	percent survival of parasite ([3]; 50 μM compound) [%]	Km [1] [µM]	metabolism to nucleoside 5'-monophosphate by the enzyme [4]	host-toxicity (survival of uninfected host cells) ([5]; 5 μM compound) [%]	host-toxicity (survival of uninfected host cells) ([5]; 10 μM compound) [%]	host-toxicity (survival of uninfected host cells) ([5]; 25 μM compound) [%]	host-toxicity (survival of uninfected host cells) ([5]; 50 μM compound) [%]	enhancement of binding by inclusion of the carbocyclic motif [6] [fold]
7-deaza-6-(p-methylbenzylthio)inosines	2.8	–	–	–	–	–	–	–	–	–	–	–	–	–	–	–
6-Benzylthioinosine [Compound 22, reference compound]	–	92.7	45.8	7.6	0.0	100	100	100	100	14.3	–	–	–	–	–	–
OCC1CC(n2cnc3c(SCc4ccc(F)cc4)ncnc32)C(O)C1O (centres unmarked) [Compound 8, Carbocyclic 6-(p-fluorobenzylthio)inosine]	–	89.2	61.5	12.4	3.4	100	100	100	100	–	its 5’-monophosphate derivative appeared as a new peak	100	100	100	100	–
Cc1ccc(CSc2ncnc3c2ncn3C2CC(CO)C(O)C2O)cc1 (centres unmarked) [Compound 11, Carbocyclic 6-(p-methylbenzylthio)inosine]	–	43.4	2.54	0.0	0.0	99.0	100	100	100	–	–	100	100	100	100	3.7
CS(=O)(=O)c1ccc(CSc2ncnc3c2ncn3C2CC(CO)C(O)C2O)cc1 (centres unmarked) [Compound 17, Carbocyclic 6-(p-methylsulfonylbenzylthio)inosine]	–	66.8	21.2	0.0	0.0	100	100	100	100	–	–	100	100	100	100	–
OCC1CC(n2cnc3c(SCc4ccccc4)ncnc32)C(O)C1O (centres unmarked) [Compound 1, Carbocyclic 6-(benzylthio)inosine]	–	84.7	42.7	4.9	0.0	100	100	100	100	105	converted to their respective nucleoside 5’-monophosphates	100	100	100	94.3	–
OCC1CC(n2cnc3c(SCc4ccc(Br)cc4)ncnc32)C(O)C1O (centres unmarked) [Compound 10, Carbocyclic 6-(p-bromobenzylthio)inosine]	–	77.1	47.3	1.2	1.0	100	100	100	100	–	–	100	100	100	100	–
Cc1ccccc1CSc1ncnc2c1ncn2C1CC(CO)C(O)C1O (centres unmarked) [Compound 4, Carbocyclic 6-(o-methylbenzylthio)inosine]	–	82.7	45.4	7.6	0.0	100	100	100	100	–	–	100	100	100	99.2	–
OCC1CC(n2cnc3c(SCc4ccc(Cl)c(Cl)c4)ncnc32)C(O)C1O (centres unmarked) [Compound 19, Carbocyclic 6-(m,p-dichlorobenzylthio)inosine]	–	59.7	17.8	8.3	1.5	100	100	100	100	–	–	100	100	100	73.1	–
OCC1CC(n2cnc3c(SCc4ccccc4F)ncnc32)C(O)C1O (centres unmarked) [Compound 2, Carbocyclic 6-(o-fluorobenzylthio)inosine]	–	98.6	93.7	39.2	12.7	100	100	100	100	–	–	100	100	100	85.8	–
